Values of other authors, collected in patent publication US8642581B1, “Compositions and methods for the production of S-adenosylmethionine within the body” (priority 2000, dated 2014).

Key:
[1] = 35° C. (95° F.)
[2] = tested on: Depressive symptoms; conditions: 195 patients, 400 mg SAMe parenterally for 15 days
[3] = tested on: beta-adrenergic binding sites; conditions: rats, chronic administration
[4] = tested on: brain membrane; conditions: rats, chronic administration

**Q.** With `C[S+](CC[C@H](N)C(=O)O)C[C@H]1O[C@@H](n2cnc3c(N)ncnc32)[C@H](O)[C@@H]1O` (some centres unmarked) [SAMe, S-adenosylmethionine] as the compound, how does the “time SAMe remains stable” value [1] read?
**A.** The value was 8 to 10 h.

**Q.** What about the serious adverse events [2] of the same compound?
**A.** The serious adverse events was “no serious adverse events were reported”.

**Q.** What about the Depressive symptoms ([2]; after 7 and 15 days) of the same compound?
**A.** The Depressive symptoms was “remitted after both 7 and 15 days”.

**Q.** And the “age-related decrease in beta-adrenergic binding sites” value [3]?
**A.** Its value is “prevents”.

**Q.** And the “age-related decrease of brain membrane fluidity” value [4]?
**A.** Its value is “prevents”.
